This note sets out measurements from US4645769A, “1-oxa-1-dethia-cephalosporin compounds and antibacterial agent comprising the same” (Merck & Co., Inc., priority 1985, dated 1987).

Structures are written as SMILES. Values after ≈ are worked out from the molar mass of the structure shown. Counter-ions that a name gives are not always drawn.

The subject of series [1] is Pseudomonas aeruginosa E-2. As to the kind of experiment: Minimum Inhibitory Concentration (MIC), antibacterial spectrum in vitro. The class given is cell-based. The following applies: E2; Pseudomonas aeruginosa E-2; read-out: Minimum Inhibitory Concentration (MIC).
Series [2] has as its system Salmonella typhimurium LT-2. Described as above. In kind it is cell-based. The following applies: Salmonella enterica; Salmonella typhimurium LT-2; read-out: Minimum Inhibitory Concentration (MIC).
The test system of series [3] is Klebsiella pneumoniae PCI 602. Described as above. In kind it is cell-based. The following applies: PCI602; Klebsiella pneumoniae PCI 602; read-out: Minimum Inhibitory Concentration (MIC).
Series [4] deals with Streptococcus faecalis. The experiment in a line: Antibacterial activity against Streptococcus faecalis (statement in words). In kind it is cell-based.
Series [5] relates to Esherichia coli NIHJ JC-2. As to the kind of experiment: Minimum Inhibitory Concentration (MIC), antibacterial spectrum in vitro. In kind it is cell-based.
The subject of series [6] is Pseudomonas aeruginosa. The experiment in a line: Antibacterial activity against Pseudomonas aeruginosa (from Table 1). In kind it is cell-based. The following applies: in words.
Series [7] deals with Staphylococcus aureus 209 P JC-1. The experiment in a line: Minimum Inhibitory Concentration (MIC), antibacterial spectrum in vitro. The following applies: 209PJC1; Staphylococcus aureus 209 P JC-1; read-out: Minimum Inhibitory Concentration (MIC). In kind it is cell-based.
The test system of series [8] is Streptococcus faecalis ATCC 8043. The series is described as above. In kind it is cell-based. The following applies: Enterococcus faecalis, ATCC8043; Streptococcus faecalis ATCC 8043; read-out: Minimum Inhibitory Concentration (MIC).
Series [9] deals with Proteus morganii 1510. The description is as above. The following applies: Morganella morganii; Proteus morganii 1510; read-out: Minimum Inhibitory Concentration (MIC). In kind it is cell-based.
Series [10] has as its system Pseudomonas aeruginosa MB-3833. The description is as above. The note with it: MB3833; Pseudomonas aeruginosa MB-3833; read-out: Minimum Inhibitory Concentration (MIC). In kind it is cell-based.
The subject of series [11] is Citrobacter freundii GN-346. The description is as above. The class given is cell-based. The following applies: GN346; Citrobacter freundii GN-346; read-out: Minimum Inhibitory Concentration (MIC).
Series [12] is described as follows: Concentration in Blood Serum after subcutaneous dosing (bioassay using Escherichia coli). In kind it is in vivo. The note with it: mouse, sc, 25 mg/Kg subcutaneously, mice; for concentration at 0.5 h: 1/2 hour; for concentration at 0.25 h: 1/4 hour; for concentration at 5 min: 1/12 hour. On the procedure: The concentration of the compound in the serum was determined by bioassay using Escherichia coli as assay microorganism.

In series [13] the test system is Pseudomonas aeruginosa RPL-11. The experiment in a line: Minimum Inhibitory Concentration (MIC), antibacterial spectrum in vitro. The note with it: RPL11; Pseudomonas aeruginosa RPL-11; read-out: Minimum Inhibitory Concentration (MIC). In kind it is cell-based.
The subject of series [14] is Enterobacter cloacae P99. The description is as above. The class given is cell-based. The following applies: P99, read-out: Minimum Inhibitory Concentration (MIC).
The subject of series [15] is Esherichia coli TEM DC-2. The series is described as above. In kind it is cell-based. The following applies: read-out: Minimum Inhibitory Concentration (MIC).

As to `CON=C(C(=O)NC1C(=O)N2C(C(=O)[O-])=C(CSc3cc[n+](CC(F)(F)F)cc3)C(C)OC12)c1csc(N)n1` [Compound 6, (6R,7R)-7-((Z)-2-(2-Aminothiazole-4-yl)-2-methoxyiminoacetamide)-(2S)-2-methyl-3-(1-(2,2,2-trifluoroethyl)pyridinium-4-ylthiomethyl)-1-oxa-1-dethiaceph-3-em-4-carboxylate], the MIC in [1] is 3.13 µg/mL (≈ 5.34 µM); in series [2], < 0.025 µg/mL; in [3], 0.1 µg/mL (≈ 0.17 µM); in series [5] it was 0.05 µg/mL (≈ 0.0852 µM); in series [7], 0.2 µg/mL (≈ 0.341 µM); in series [8], 12.5 µg/mL (≈ 21.3 µM). Also, the MIC was determined as 6.25 µg/mL (≈ 10.7 µM) in [9], 3.13 µg/mL (≈ 5.34 µM) in series [10] and 50 µg/mL (≈ 85.2 µM) in series [11]. Also, the “effectiveness against Streptococcus faecalis” value in series [4] is reported as “effective against Streptococcus faecalis”. Moreover, in [6], the “effectiveness against Pseudomonas aeruginosa” value is given as “effective against Pseudomonas aeruginosa”.

On to `CON=C(C(=O)NC1C(=O)N2C(C(=O)[O-])=C(CSc3cc[n+](CC(=O)O)cc3)C(C)OC12)c1csc(N)n1` [Compound 7, (6R,7R)-7-((Z)-2-(2-Aminothiazole-4-yl)-2-methoxyiminoacetamide)-(2S)-2-methyl-3-(1-carboxymethylpyridinium-4-ylthiomethyl)-1-oxa-1-dethiaceph-3-em-4-carboxylate (Sodium Salt)], for which the MIC in series [1] is 12.5 µg/mL; in [2], < 0.025 µg/mL; in series [3], 0.025 µg/mL; in series [5] it was < 0.025 µg/mL; in series [7], 0.39 µg/mL; in [8] it was 12.5 µg/mL. Besides, the MIC in [9] came to 0.78 µg/mL; in series [10], 12.5 µg/mL; in [11], 6.25 µg/mL. Further, the “effectiveness against Streptococcus faecalis” value in series [4] is recorded as “effective against Streptococcus faecalis”.

Turning to `CON=C(C(=O)NC1C(=O)N2C(C(=O)[O-])=C(CSc3cc[n+](C)cc3)COC12)c1csc(N)n1` [Compound 10, (6R,7R)-7-((Z)-2-(2-Aminothiazole-4-yl)-2-methoxyiminoacetamide)-3-(1-methylpyridinium-4-yl-thiomethyl)-1-oxa-1-dethiaceph-3-em-4-carboxylate], the MIC is 25 µg/mL (≈ 49.5 µM) in series [1]; < 0.025 µg/mL in series [2]; 0.025 µg/mL (≈ 0.0495 µM) in series [3]; < 0.025 µg/mL in [5]; 0.1 µg/mL (≈ 0.198 µM) in [7]; 1.56 µg/mL (≈ 3.09 µM) in series [8]. The MIC in series [9] came to 1.56 µg/mL (≈ 3.09 µM); in series [10], 6.25 µg/mL (≈ 12.4 µM); in [11], 1.56 µg/mL (≈ 3.09 µM). Further, the “effectiveness against Streptococcus faecalis” value in series [4] is “effective against Streptococcus faecalis”.

Take `CC1OC2C(NC(=O)C(=NOCC(=O)O)c3csc(N)n3)C(=O)N2C(C(=O)[O-])=C1CSc1cc[n+](CC(=O)O)cc1` [Compound 9, (6R,7R)-7-((Z)-2-(2-Aminothiazole-4-yl)-2-carboxymethoxyiminoacetamide)-(2S)-2-methyl-3-(1-carboxymethylpyridinium-4-ylthiomethyl)-1-oxa-1-dethiaceph-3-em-4-carboxylate (Sodium Salt)]: the MIC in series [1] is 3.13 µg/mL; in series [2], < 0.025 µg/mL; in series [3] it was 0.1 µg/mL; in [5], 0.1 µg/mL; in [7], 6.25 µg/mL; in series [8] it was 50 µg/mL. For the same compound, the MIC in series [9] was 0.78 µg/mL; in series [10], 3.13 µg/mL; in series [11], 12.5 µg/mL. Besides, the “effectiveness against Pseudomonas aeruginosa” value in [6] is given as “effective against Pseudomonas aeruginosa”. This compound displayed a concentration at 0.5 h in series [12] of 25000 ng/mL. The compound further came in with a concentration at 0.25 h in series [12] of 32000 ng/mL. Further, in series [12], the concentration at 5 min amounted to 36000 ng/mL. The concentration at 1 h in series [12] turned out to be 5100 ng/mL.

Take `CC(C)(ON=C(C(=O)NC1C(=O)N2C(C(=O)[O-])=C(CSc3cc[n+](CC(F)(F)F)cc3)COC12)c1csc(N)n1)C(=O)O` [Compound 16, (6R,7R)-7-((Z)-2-(2-Aminothiazole-4-yl)-2-(2-carboxyprop-2-oxyimino)acetamide)-3-(1-(2,2,2-trifluoroethyl)-pyridinium-4-ylthiomethyl)-1-oxa-1-dethiaceph-3-em-4-carboxylate (Sodium Salt)]: the MIC in series [1] is 1.56 µg/mL; in series [13] it was 32 µg/mL; in series [2], < 0.025 µg/mL; in [3], 0.1 µg/mL; in series [5] it was 0.1 µg/mL; in series [14] it was 128 µg/mL. In addition, the MIC in series [7] is 3.13 µg/mL; in series [8], > 100 µg/mL; in series [9], 6.25 µg/mL; in series [15] it was 0.03 µg/mL; in [10], 1.56 µg/mL; in series [11], 25 µg/mL. In series [6], the “effectiveness against Pseudomonas aeruginosa” value is on record as “effective against Pseudomonas aeruginosa”. The compound further registered a concentration at 0.5 h in series [12] of 11000 ng/mL. Further, the concentration at 0.25 h in series [12] was 20000 ng/mL. This compound also showed a concentration at 5 min in series [12] of 16000 ng/mL. Further, the concentration at 1 h in series [12] was determined as 2400 ng/mL.

Consider `CON=C(C(=O)NC1C(=O)N2C(C(=O)[O-])=C(CSc3cc[n+](CC(=O)O)cc3)COC12)c1csc(N)n1` [Compound 11, (6R,7R)-7-((Z)-2-(2-Aminothiazole-4-yl)-2-methoxyiminoacetamide)-3-(1-carboxymethylpyridinium-4-yl-thiomethyl)-1-oxa-1-dethiaceph-3-em-4-carboxylate (Sodium Salt)], for which the MIC in series [1] is 50 µg/mL; in [2], < 0.025 µg/mL; in series [3] it was 0.025 µg/mL; in series [5], < 0.025 µg/mL; in series [7], 0.39 µg/mL; in [8], 0.78 µg/mL. The MIC was found to be 6.2 µg/mL in [9], 25 µg/mL in [10] and 12.5 µg/mL in series [11]. The “effectiveness against Streptococcus faecalis” value in series [4] is “effective against Streptococcus faecalis”.

Take `CCON=C(C(=O)NC1C(=O)N2C(C(=O)[O-])=C(CSc3cc[n+](CC(=O)O)cc3)C(C)OC12)c1csc(N)n1` [Compound 8, (6R,7R)-7(Z)-2-(2-Aminothiazole-4-yl)-2-ethoxyiminoacetamide)-(2S)-2-methyl-3-(1-carboxymethylpyridinium-4-ylthiomethyl)-1-oxa-1-dethiaceph-3-em-4-carboxylate (Sodium Salt)]: the MIC in series [1] was found to be 12.5 µg/mL; in series [2], 0.05 µg/mL; in [3], 0.05 µg/mL; in series [5], 0.1 µg/mL; in series [7], 0.39 µg/mL; in [8], 6.25 µg/mL. Besides, the MIC was determined as 0.78 µg/mL in series [9], 12.5 µg/mL in series [10] and 6.25 µg/mL in series [11]. In addition, the “effectiveness against Streptococcus faecalis” value in [4] is “effective against Streptococcus faecalis”.

Regarding `CCON=C(C(=O)NC1C(=O)N2C(C(=O)[O-])=C(CSc3cc[n+](CC(=O)O)cc3)COC12)c1csc(N)n1` [Compound 12, (6R,7R)-7-((Z)-2-(2-Aminothiazole-4-yl)-2-ethoxyiminoacetamido)-3-(1-carboxymethylpyridinium-4-ylthiomethyl)-1-oxa-1-dethiaceph-3-em-4-carboxylate (Sodium Salt)], the MIC in series [1] is 25 µg/mL; in series [2] it was < 0.025 µg/mL; in series [3], 0.025 µg/mL; in [5], < 0.025 µg/mL; in series [7], 0.39 µg/mL; in series [8], 6.25 µg/mL. Moreover, the MIC in series [9], in series [10] and in series [11] was 12.5 µg/mL each time. Moreover, the “effectiveness against Streptococcus faecalis” value in series [4] is reported as “effective against Streptococcus faecalis”.

In the case of `C[n+]1ccc(SCC2=C(C(=O)[O-])N3C(=O)C(NC(=O)C(=NOCC(=O)O)c4csc(N)n4)C3OC2)cc1` [Compound 13, (6R,7R)-7-((Z)-2-(2-Aminothiazole-4-yl)-2-carboxymethoxyiminoacetamide)-3-(1-methylpyridinium-4-ylthiomethyl)-1-oxa-1-dethiaceph-3-em-4-carboxylate (Sodium Salt)], the MIC was 6.25 µg/mL in series [1]; 128 µg/mL in series [13]; < 0.025 µg/mL in series [2]; 25 µg/mL in series [3]; < 0.025 µg/mL in [5]; 64 µg/mL in series [14]. Also, the MIC in [7] turned out to be 1.56 µg/mL; in series [8], 50 µg/mL; in series [9], 1.56 µg/mL; in series [15], 1 µg/mL; in [10] it was 6.25 µg/mL; in [11], 6.25 µg/mL.
